These results are taken from patent US11814367B2, “Inhibitors of glycogen synthase 1 (GYS1) and methods of use thereof” (Maze Therapeutics, Inc., priority 2021, dated 2023).

Assay [1] has as its target hGYS1 enzyme (recombinant hGYS1/GN1 protein) (Homo sapiens (Human), UniProt P13807). The assay can be described thus: GYS1 coupled enzyme assay (PK/LDH). In kind it is biochemical. As to conditions: hGYS1/GN1 50 nM, UDP-Glucose 0.8 mM, G6P 1 mM; geometric mean of at least 2 runs.
Assay [2] addresses hGYS2 enzyme (recombinant hGYS2/GN1 protein) (Homo sapiens (Human), UniProt P54840). The assay is described as follows: GYS2 coupled enzyme assay (PK/LDH). It is filed as biochemical. Particulars: geometric mean of at least 2 assay runs on separate days, read-out: Avg_IC50. From the text:
The GYS2 coupled enzyme assay is a kinetic biochemical assay that indirectly quantifies the rate of glycogen synthesis by coupling the conversion of GYS2 substrate UDP-glucose into UDP with downstream enzymatic reactions. UDP is released from UDP-glucose as glucose monomers are linked into the growing glycogen strand by GYS2. The coupled assay then proceeds with pyruvate kinase utilizing UDP and phospho(enol)pyruvate (PEP) to form pyruvate. Lactate dehydrogenase then converts pyruvate and NADH into lactate and NAD+. Oxidation of NADH to NAD+ can be measured continuously with a plate reader by quantifying the decrease in NADH absorbance at 340 nm over time.
Compounds that inhibit the hGYS2 enzyme and, subsequently, the downstream conversion of NADH to NAD+, were tested using assay ready plates (black, clear bottom 384 well plates) in a final DMSO reaction volume of 2.5% DMSO. The Assay Buffer contained 50 mM Tris pH 7.5, 2 mM MgCl2, and 100 mM KCl. Fresh stocks of BSA at a final concentration of 0.02% and TCEP 1 mM were added before splitting buffer into hGYS2 buffer and substrate buffer. To the hGYS2 buffer, rabbit liver glycogen was added at a final concentration of 0.2% glycogen. Glucose-6-Phosphate was added at 2 mM, recombinant hGYS2/GN1 protein was added at 200 nM to the substrate buffer, phosphoenolpyruvate (PEP) was added at 2 mM, UDP-Glucose was added at 2 mM, NADH was added at 0.6 mM, and Pyruvate Kinase/Lactate Dehydrogenase was added at 20 units/mL. The reaction was initiated by mixing hGYS2 buffer and substrate buffer at a 1:1 ratio. Both buffers were plated using a liquid dispensing device with hGYS2 buffer plated first followed by the substrate buffer. Plates were spun briefly to eliminate air bubbles and are immediately read in continuous mode at an absorbance of 340 nm, for 10 time points in one-minute increments, for a total of 10 minutes. The slope from these 10 time points was normalized to the positive and negative control wells. The duplicate % inhibition values are then averaged and fit to a Hill equation for dose response according to the Levenberg-Marquardt algorithm with the Hill equation maximum set to 100 and the minimum set to 0.
The results are shown in Table 4 below, which reports the IC50 of each compound. Unless otherwise specified, IC50 values are reported as the geometric mean of at least 2 assay runs on separate days. As shown in the table below, the compounds of the present invention are not potent inhibitors of human GYS2. Unless otherwise specified, IC50 values are reported as the geometric mean of at least two assay runs on separate days. Each run represents the average of a technical replicate, where each compound was assayed twice in the same plate. A superscript “#” symbol in Table 4 indicates results from a single assay run.

hGYS2 enzyme (recombinant hGYS2/GN1 protein), sequence (P54840 whole entry): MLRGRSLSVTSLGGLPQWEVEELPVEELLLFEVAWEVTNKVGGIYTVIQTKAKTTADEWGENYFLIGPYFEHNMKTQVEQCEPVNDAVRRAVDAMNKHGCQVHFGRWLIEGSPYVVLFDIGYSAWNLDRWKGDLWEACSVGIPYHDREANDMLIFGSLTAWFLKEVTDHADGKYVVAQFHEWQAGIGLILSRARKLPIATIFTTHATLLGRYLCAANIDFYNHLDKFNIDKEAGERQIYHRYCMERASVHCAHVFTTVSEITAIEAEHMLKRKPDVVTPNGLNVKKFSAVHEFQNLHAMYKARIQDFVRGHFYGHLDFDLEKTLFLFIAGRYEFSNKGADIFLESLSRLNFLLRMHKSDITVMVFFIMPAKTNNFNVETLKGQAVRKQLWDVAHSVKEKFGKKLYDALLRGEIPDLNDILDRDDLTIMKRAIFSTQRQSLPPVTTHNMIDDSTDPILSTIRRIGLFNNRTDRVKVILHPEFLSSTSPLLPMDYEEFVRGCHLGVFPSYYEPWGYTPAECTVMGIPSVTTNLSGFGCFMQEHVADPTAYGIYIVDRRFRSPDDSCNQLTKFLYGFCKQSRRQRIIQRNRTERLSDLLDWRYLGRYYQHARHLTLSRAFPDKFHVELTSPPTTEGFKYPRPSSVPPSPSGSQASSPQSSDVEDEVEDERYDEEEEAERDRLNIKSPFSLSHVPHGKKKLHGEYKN
hGYS2 enzyme (recombinant hGYS2/GN1 protein), sequence (P46976 whole entry partner): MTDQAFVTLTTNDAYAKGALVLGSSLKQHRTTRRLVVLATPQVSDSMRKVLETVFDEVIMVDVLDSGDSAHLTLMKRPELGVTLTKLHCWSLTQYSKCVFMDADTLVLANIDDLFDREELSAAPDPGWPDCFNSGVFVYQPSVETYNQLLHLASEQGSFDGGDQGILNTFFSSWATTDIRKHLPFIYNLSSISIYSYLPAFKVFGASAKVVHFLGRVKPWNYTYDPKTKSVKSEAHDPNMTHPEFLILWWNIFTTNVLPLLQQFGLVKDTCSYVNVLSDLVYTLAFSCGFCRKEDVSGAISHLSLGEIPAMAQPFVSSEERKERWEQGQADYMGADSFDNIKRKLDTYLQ
hGYS1 enzyme (recombinant hGYS1/GN1 protein), sequence (P13807 whole entry): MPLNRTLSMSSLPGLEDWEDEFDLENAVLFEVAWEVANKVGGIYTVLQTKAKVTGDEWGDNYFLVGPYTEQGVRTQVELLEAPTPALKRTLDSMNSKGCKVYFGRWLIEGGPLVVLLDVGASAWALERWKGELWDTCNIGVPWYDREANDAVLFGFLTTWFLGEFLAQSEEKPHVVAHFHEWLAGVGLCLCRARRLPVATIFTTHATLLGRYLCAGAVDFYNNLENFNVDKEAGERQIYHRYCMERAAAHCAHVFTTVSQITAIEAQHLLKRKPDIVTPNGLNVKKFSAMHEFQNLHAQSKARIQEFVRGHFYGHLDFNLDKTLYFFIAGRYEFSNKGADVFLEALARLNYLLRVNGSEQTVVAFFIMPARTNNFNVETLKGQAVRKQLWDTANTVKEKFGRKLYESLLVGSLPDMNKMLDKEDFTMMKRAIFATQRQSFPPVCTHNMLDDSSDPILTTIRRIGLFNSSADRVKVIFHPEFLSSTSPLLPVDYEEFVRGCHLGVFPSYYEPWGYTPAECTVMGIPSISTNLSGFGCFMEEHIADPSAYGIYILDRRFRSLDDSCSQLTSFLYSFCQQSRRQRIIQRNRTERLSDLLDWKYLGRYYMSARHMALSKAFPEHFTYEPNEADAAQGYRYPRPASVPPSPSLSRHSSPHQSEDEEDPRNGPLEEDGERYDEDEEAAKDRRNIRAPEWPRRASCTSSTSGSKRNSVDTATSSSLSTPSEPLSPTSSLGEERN
hGYS1 enzyme (recombinant hGYS1/GN1 protein), sequence (P46976 whole entry partner): as the sequence (P46976 whole entry partner) above

For `CC(C)c1ccc([C@@H](NC(=O)[C@@H]2C[C@@H](F)CN2C(=O)Cc2nnn[nH]2)c2ccccc2)cc1F` [Compound 328, (2S,4R)-4-fluoro-N-[(S)-[3-fluoro-4-(propan-2-yl)phenyl](phenyl)methyl]-1-[2-(1H-1,2,3,4-tetrazol-5-yl)acetyl]pyrrolidine-2-carboxamide], the IC50 in assay [1] is 16 nM; in assay [2] it was over 100 µM.

Take `CC(C)c1ccc([C@@H](NC(=O)[C@@H]2C[C@@H](F)CN2C(=O)Cc2cnn[nH]2)c2cccnc2N)cc1F` [Compound 613, (2S,4R)-1-(2-(1H-1,2,3-triazol-5-yl)acetyl)-N—((R)-(2-aminopyridin-3-yl)(3-fluoro-4-isopropylphenyl)methyl)-4-fluoropyrrolidine-2-carboxamide]: the values for the IC50 in assay [1] and in assay [2] were 130 nM and over 100 µM, respectively.

`CC(C)c1ccc([C@@H](NC(=O)[C@@H]2C[C@@H](F)CN2C(=O)CNC2(C)COC2)c2ccccc2)cc1` [Compound 193, (2S,4R)-4-fluoro-1-{2-[(3-methyloxetan-3-yl)amino]acetyl}-N-[(S)-phenyl[4-(propan-2-yl)phenyl]methyl]pyrrolidine-2-carboxamide]: the IC50 was 303 nM in assay [1] and over 100 µM in assay [2].

On to `CC(C)c1ccc([C@@H](NC(=O)[C@@H]2C[C@@H](F)CN2C(=O)Cc2cncnc2)c2ccccc2)cc1F` [Compound 345, (2S,4R)-4-fluoro-N-[(S)-[3-fluoro-4-(propan-2-yl)phenyl](phenyl)methyl]-1-[2-(pyrimidin-5-yl)acetyl]pyrrolidine-2-carboxamide], for which the IC50 was 32 nM in assay [1] and over 100 µM in assay [2].

In the case of `O=C(N[C@@H](c1ccccc1)c1ccc(C2CC2)c(F)c1)[C@@H]1C[C@@H](F)CN1C(=O)Cc1nnn[nH]1` [Compound 430, (2S,4R)-N-[(S)-(4-cyclopropyl-3-fluorophenyl)(phenyl)methyl]-4-fluoro-1-[2-(1H-1,2,3,4-tetrazol-5-yl)acetyl]pyrrolidine-2-carboxamide], the IC50 in assay [1] is 191 nM; in assay [2] it was over 100 µM.

In the case of `CC(C)c1ccc([C@@H](NC(=O)[C@@H]2C[C@@H](F)CN2C(=O)Cc2cccnc2)c2ccccc2)cc1` [Compound 38, (2S,4R)-4-fluoro-N-[(S)-phenyl[4-(propan-2-yl)phenyl]methyl]-1-[2-(pyridin-3-yl)acetyl]pyrrolidine-2-carboxamide], the results for the IC50 in assay [1] and in assay [2] were 51 nM and over 100 µM, respectively.

Regarding `Cc1nnc(CC(=O)N2C[C@H](F)C[C@H]2C(=O)N[C@@H](c2ccccc2)c2ccc(C(C)C)cc2)o1` [Compound 10, (2S,4R)-4-fluoro-1-[2-(5-methyl-1,3,4-oxadiazol-2-yl)acetyl]-N-[(S)-phenyl[4-(propan-2-yl)phenyl]methyl]pyrrolidine-2-carboxamide], the IC50 was 50 nM in assay [1] and over 100 µM in assay [2].

On to `CC(=O)N1CCCO[C@@H](C(=O)N2C[C@H](F)C[C@H]2C(=O)N[C@@H](c2ccccc2)c2ccc(C(C)C)cc2)C1` [Compound 158, (2S,4R)-1-[(2R)-4-acetyl-1,4-oxazepane-2-carbonyl]-4-fluoro-N-[(S)-phenyl[4-(propan-2-yl)phenyl]methyl]pyrrolidine-2-carboxamide], for which the IC50 in assay [1] is 70 nM; in assay [2] it was over 100 µM.

`CC(C)c1ccc([C@@H](NC(=O)[C@@H]2C[C@@H](F)CN2C(=O)Cn2ccncc2=O)c2ccccc2)cc1` [Compound 32, (2S,4R)-4-fluoro-1-[2-(2-oxo-1,2-dihydropyrazin-1-yl)acetyl]-N-[(S)-phenyl[4-(propan-2-yl)phenyl]methyl]pyrrolidine-2-carboxamide]: the IC50 in assay [1] was 23 nM; in assay [2], over 100 µM.

On to `CC(C)c1ccc([C@@H](NC(=O)[C@@H]2C[C@@H](F)CN2C(=O)Cc2cnn(C)c2)c2ccccc2)cc1` [Compound 50, (2S,4R)-4-fluoro-1-[2-(1-methyl-1H-pyrazol-4-yl)acetyl]-N-[(S)-phenyl[4-(propan-2-yl)phenyl]methyl]pyrrolidine-2-carboxamide], for which the values for the IC50 in assay [1] and in assay [2] were 17 nM and over 100 µM, respectively.

In the case of `Cc1cnn(CC(=O)N2C[C@H](F)C[C@H]2C(=O)N[C@@H](c2ccccc2)c2ccc(C(C)C)cc2)c1` [Compound 56, (2S,4R)-4-fluoro-1-[2-(4-methyl-1H-pyrazol-1-yl)acetyl]-N-[(S)-phenyl[4-(propan-2-yl)phenyl]methyl]pyrrolidine-2-carboxamide], the IC50 is 41 nM in assay [1] and over 100 µM in assay [2].

With `Cc1cn(CC(=O)N2C[C@H](F)C[C@H]2C(=O)N[C@@H](c2ccccc2)c2ccc(C(C)C)c(F)n2)c(=O)[nH]c1=O` [Compound 388, (2S,4R)-4-fluoro-N-[(S)-[6-fluoro-5-(propan-2-yl)pyridin-2-yl](phenyl)methyl]-1-[2-(5-methyl-2,4-dioxo-1,2,3,4-tetrahydropyrimidin-1-yl)acetyl]pyrrolidine-2-carboxamide], the IC50 was 5 nM in assay [1] and over 100 µM in assay [2].

Take `CC(C)c1ccc([C@@H](NC(=O)[C@@H]2C[C@@H](F)CN2C(=O)Cc2ccc3ncnn3c2)c2ccccc2)cc1` [Compound 118, (2S,4R)-4-fluoro-N-[(S)-phenyl[4-(propan-2-yl)phenyl]methyl]-1-(2-{[1,2,4]triazolo[1,5-a]pyridin-6-yl}acetyl)pyrrolidine-2-carboxamide]: the IC50 is 20 nM in assay [1] and over 100 µM in assay [2].

Turning to `CC(C)c1ccc([C@@H](NC(=O)[C@@H]2CCCN2C(=O)CCC(N)=O)c2ccccc2)cc1` [Compound 213, (2S)-1-(3-carbamoylpropanoyl)-N-[(S)-phenyl[4-(propan-2-yl)phenyl]methyl]pyrrolidine-2-carboxamide], the IC50 in assay [1] was 282 nM; in assay [2], over 100 µM.

Regarding `CC(C)c1ccc([C@@H](NC(=O)[C@@H]2CCCN2C(=O)C2CC2)c2ccccc2)cc1` [Compound 203, (2S)-1-cyclopropanecarbonyl-N-[(S)-phenyl[4-(propan-2-yl)phenyl]methyl]pyrrolidine-2-carboxamide], the IC50 in assay [1] is 862 nM; in assay [2] it was over 100 µM.

For the compound `CC(C)c1ccc([C@@H](NC(=O)[C@@H]2CCCN2C(=O)Cc2ncco2)c2ccccc2)cc1` [Compound 216, (2S)-1-[2-(1,3-oxazol-2-yl)acetyl]-N-[(S)-phenyl[4-(propan-2-yl)phenyl]methyl]pyrrolidine-2-carboxamide], the values for the IC50 in assay [1] and in assay [2] were 247 nM and over 100 µM, respectively.

With `CC(=O)NCCCC(=O)N1C[C@H](F)C[C@H]1C(=O)N[C@@H](c1ccccc1)c1ccc(C(C)C)cc1` [Compound 191, (2S,4R)-1-(4-acetamidobutanoyl)-4-fluoro-N-[(S)-phenyl[4-(propan-2-yl)phenyl]methyl]pyrrolidine-2-carboxamide], the IC50 is 131 nM in assay [1] and over 100 µM in assay [2].

For the compound `CC(=O)N1CC2(CCCC2CC(=O)N2C[C@H](F)C[C@H]2C(=O)N[C@@H](c2ccccc2)c2ccc(C(C)C)cc2)C1` (stereo partly drawn) [Compound 7, (2S,4R)-1-(2-{2-acetyl-2-azaspiro[3.4]octan-5-yl}acetyl)-4-fluoro-N-[(S)-phenyl[4-(propan-2-yl)phenyl]methyl]pyrrolidine-2-carboxamide], the IC50 was 113 nM in assay [1] and over 100 µM in assay [2].

For `CC(C)c1ccc([C@@H](NC(=O)[C@@H]2C[C@@H](F)CN2C(=O)COc2cccnc2)c2ccccc2)cc1` [Compound 48, (2S,4R)-4-fluoro-N-[(S)-phenyl[4-(propan-2-yl)phenyl]methyl]-1-[2-(pyridin-3-yloxy)acetyl]pyrrolidine-2-carboxamide], the IC50 in assay [1] is 44 nM; in assay [2] it was over 100 µM.

As to `CC(C)c1ccc([C@@H](NC(=O)[C@@H]2C[C@@H](F)CN2C(=O)Cc2ncccn2)c2ccccc2)cc1` [Compound 28, (2S,4R)-4-fluoro-N-[(S)-phenyl[4-(propan-2-yl)phenyl]methyl]-1-[2-(pyrimidin-2-yl)acetyl]pyrrolidine-2-carboxamide], in assay [2], the IC50 was over 100 µM.
